Results reported in patent US6855513B1 (priority 1999, dated 2005).

How the values were obtained:
[1] = tested on: P. aeruginosa PAO1 and QSC102; experiment: Bacterial growth in the PAO1 / QSC102 screening assay; type: cell-based, Pseudomonas aeruginosa; settings: in the presence of test compound
Procedure: (§1) Microtiter plates are prepared by adding 200 μL Luria Broth (“LB”) agar, containing 0.008% 5-bromo-4-chloro-3-indolyl-β-D-galactose (X-gal) to each well. Overnight cultures of PAO1 and QSC102 are subcultured in LB to a starting absorbance at 600 nm (“A600”) of 0.05 and grown at 37° C to an A600 of 1.0. PAO1 is diluted 2.5×10^5-fold in LB and 5 μL of this is applied to the surface of the LB agar in each well. Plates are then dried in a laminar flow hood for 60 minutes. A tenfold dilution of QSC102 in LB is used to inoculate each well using a replicator. Plates are then sealed and incubated at 37° C for 40 hours. Growth and color development are evaluated visually and the data is recorded with a camera.
(§2) The test compound was present in a microtiter well and overlaid with LB agar and 5-bromo-4-chloro-3-indolyl-β-D-galactose (X-gal). Both strains were spotted on the agar in each well. […] Inhibition of signaling was evaluated qualitatively by the absence or weakening of the blue color development.

[2] = tested on: quorum sensing signaling (Las system), QSC102 lacZ; experiment: Two-strain (PAO1 / QSC102) screening assay for quorum sensing inhibiting compounds; type: cell-based, Pseudomonas aeruginosa; settings: PAO1 + QSC102 on LB agar with X-gal, visual
Procedure: In this example, the screening assay used two strains of P. aeruginosa: a wild type P. aeruginosa (PAO1) and QSC102, from Example 1 (see FIG. 8). This assay will detect inhibition of all aspects of quorum sensing signaling, e.g., signal generation and signal reception.
as §1, §2

RhlI = target: T1, RhlI (Pseudomonas aeruginosa, UniProt P54291); settings: substrate of RhlI; cited from earlier work
T1 construct: host or cells: LasI minus strain of P. aeruginosa (as described for the cited study, Parsek et al. 1999)
T1 sequence (P54291 whole entry): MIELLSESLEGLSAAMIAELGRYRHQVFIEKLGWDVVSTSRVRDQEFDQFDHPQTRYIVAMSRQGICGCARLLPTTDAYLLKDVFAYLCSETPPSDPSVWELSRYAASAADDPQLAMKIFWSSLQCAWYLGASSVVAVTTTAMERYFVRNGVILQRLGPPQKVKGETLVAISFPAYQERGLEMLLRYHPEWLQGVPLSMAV

**Q.** With `CC(=O)C1CCOC1=O` (stereo not drawn) [acetyl-butyrolactone] as the molecule, how does the Bacterial growth [1] read?
**A.** not inhibited

**Q.** And the “Concentration required to suppress color development completely” value [2]?
**A.** ~20 mM

**Q.** And the “Inhibition of signaling (blue color development)” value [2]?
**A.** showed an inhibitory effect

**Q.** Which results are given for `CCCC(=O)SCCNC(=O)CCNC(=O)[C@H](O)C(C)(C)COP(=O)(O)OP(=O)(O)OC[C@H]1O[C@@H](n2cnc3c(N)ncnc32)[C@H](O)[C@@H]1OP(=O)(O)O` [butanoyl-CoA]?
**A.** Km (RhlI): 230 µM; vmax compared to C4-ACP (RhlI): one order of magnitude slower

**Q.** For `O=C1CCCO1` [butyrolactone], which Bacterial growth [1] is on record?
**A.** not inhibited

**Q.** What about the “Concentration required to suppress color development completely” value [2] of the same molecule?
**A.** ~20 mM

**Q.** And the “Inhibition of signaling (blue color development)” value [2]?
**A.** showed an inhibitory effect

**Q.** With butanoyl-acyl carrier protein [C4-ACP] as the molecule, how does the Km (RhlI) read?
**A.** 6 µM
